Results on 4 compounds are retold here after patent US20180185414A1, “CALCIUM SALT COMPOSITION AND FILAGGRIN PRODUCTION PROMOTER USING THE SAME” (NISSAN CHEMICAL INDUSTRIES, LTD., priority 2015, published 2018).

For assay [1], the system named is filaggrin production in human skin keratinocytes (NHEK). In words: Filaggrin production test (B): calcium salt composition, fluorescent immunostaining. In kind it is cell-based. As to conditions: for Increase rate of brightness: unsupplemented = 100. How it is done: Then, according to Table 12, the calcium salt stock aqueous dispersed solution was added to the same medium as used in filaggrin production test (A) while pipetting so that a predetermined supplemented concentration calculated in terms of calcium ion would be obtained, and thereby a calcium salt supplemented medium was prepared.
On a culture plate of 24-wells to which the same medium as used in filaggrin production test (A) was added, human skin keratinocytes (manufactured by KURABO […] LTD., NHEK) were inoculated so that the cell density would be 3,800 cells/cm^2, and this was cultured for 3 days (37° C., 5% CO2). Then, this medium was exchanged with the calcium salt supplemented medium prepared as mentioned above and incubated for a day or two (37° C., 5% CO2). These incubated cells were stained as in the above-mentioned filaggrin production test (A), and Lcell and the increase rate of brightness were calculated.

For assay [2] the test system is unchanged. In words: Filaggrin production test (A): fluorescent immunostaining with Anti-FLG. In kind it is cell-based. To be noted: for Increase rate of brightness: overnight, relative to Lcell of Comparative Test Example 2 (no calcium salt added = 100); for Brightness/Cell number (Lcell): incubated overnight. As to the method: Various calcium salts were dispersed in water so that the concentration calculated in terms of calcium ion would be 0.89 M, this obtained dispersed solution was then sterilized in an autoclave (at 120° C. for 20 minutes), and thereby various calcium salt stock dispersed solutions were prepared.
Then, according to Table 11, each calcium salt stock aqueous dispersed solution was added to a medium (manufactured by KURABO […] LTD., HuMedia-KG2) while pipetting so that that a predetermined supplemented concentration calculated in terms of calcium ion would be obtained, and thereby a calcium salt supplemented medium was prepared.
On a culture plate of 24-wells to which the same medium as used in the preparation of the above-mentioned calcium salt supplemented medium was added, human skin keratinocytes (manufactured by KURABO […] LTD., NHEK) were inoculated so that the cell density would be 3,800 cells/cm^2, and this was cultured for 3 days (37° C., 5% CO2). Then, this medium was exchanged with the calcium salt supplemented medium prepared as mentioned above and incubated for overnight (37° C., 5% CO2).
Whether filaggrin is produced by a calcium salt was examined using fluorescent immunostaining methods by Anti-Filaggrin/FLG, Rabbit-Poly, Alexa Fluor 488 (manufactured by BIS, hereinafter referred to as “Anti-FLG” as well). Moreover, for comparing the staining, DAPI (4′,6-diamidino-2-phenylindole dihydrochloride, manufactured by Wako Pure Chemical Industries, Ltd) was used to stain the nucleus.
That is to say that the above-mentioned incubated cells for overnight were washed with PBS and fixed with 4% paraformaldehyde solution (manufactured by Wako Pure Chemical Industries, Ltd). The fixed cells were permeabilized with 0.1% Triton-X 100, incubated for overnight with Anti-FLG PBS solution (×50) at 4° C., and then stained with a PBS solution of 100 nM DAPI. Note that the cells were washed with PBS after every operation.
For calculating the relative production amount of filaggrin, a fluorescent microscopic image of the above-mentioned stained cells was taken. The brightness of the image was quantified using Photoshop CS3, and this was normalized by dividing the obtained numerical value with cell numbers (Brightness/Cell number; Lcell). Moreover, the increase rate of brightness by adding various calcium salts in comparison with Lcell of the Comparative Test Example 2 in which calcium salt aqueous dispersed solution has not been added to the medium was calculated.

[3] abbreviates: calcium ion 0.09 mM, cells incubated for 1 day.
Setting [4] is: calcium ion 0.09 mM, cells incubated for 2 days.
Where [5] appears, read: calcium ion 0.89 mM, cells incubated for 1 day.
Setting [6] is: calcium ion 0.89 mM, cells incubated for 2 days.
Setting [7] is: supplemented concentration calculated in terms of calcium ion 1.78 mM.
Setting [8] is: supplemented concentration calculated in terms of calcium ion 0.89 mM.

In the case of `[Ca+2].[Cl-].[Cl-]` [Calcium chloride], the “Brightness/Cell number (Lcell)” value in assay [1] (setting [3]) is given as 0.20; in assay [1] (setting [4]), 0.16; in assay [1] (setting [5]) it was 0.23; in assay [1] (setting [6]), 0.20; in assay [2] (setting [7]), 0.12. Besides, the “Increase rate of brightness” value in assay [1] (setting [3]) stood at 83%; in assay [1] (setting [4]) it was 89%; in assay [1] (setting [5]), 96%; in assay [1] (setting [6]), 110%; in assay [2] (calcium ion 1.78 mM) it was 130%.
Take `O=P([O-])([O-])OP(=O)([O-])[O-].[Ca+2].[Ca+2]` [Calcium pyrophosphate]: the “Increase rate of brightness” value turned out to be 290% in assay [2] (calcium ion 0.89 mM) and 260% in assay [2] (calcium ion 1.78 mM). In addition, the “Filaggrin production compared to calcium chloride” value in assay [2] (human skin keratinocytes, Table 11) is listed as “relatively high filaggrin production as compared to that of calcium chloride”. Moreover, the “Brightness/Cell number (Lcell)” value in assay [2] (setting [8]) is reported as 0.28; in assay [2] (setting [7]), 0.25.
`O=P([O-])(O)O.O=P([O-])(O)O.[Ca+2]` [Calcium dihydrogen phosphate]: the “Increase rate of brightness” value in assay [2] (calcium ion 0.89 mM) came to 180%. In assay [2] (setting [8]), the “Brightness/Cell number (Lcell)” value is 0.17.
As to Calcium glycerophosphate, in assay [2] (calcium ion 1.78 mM), the “Increase rate of brightness” value amounted to 200%. The “Brightness/Cell number (Lcell)” value in assay [2] (setting [7]) was 0.19.
